The Deep4Chem optical property database

Test: photoluminescence quantum yield (fraction); solvent given as SMILES
[1] = in c1cc(-n2c3ccccc3c3ccccc32)cc(-n2c3ccccc3c3ccccc32)c1
[2] = in O=P(c1ccccc1)(c1ccccc1)c1ccccc1Oc1ccccc1P(=O)(c1ccccc1)c1ccccc1

## N#Cc1nc(N(Cc2ccc(Br)cc2)Cc2ccc(Br)cc2)c(C#N)nc1N(Cc1ccc(Br)cc1)Cc1ccc(Br)cc1
In ClC(Cl)Cl
  photoluminescence quantum yield: 0.71

## C1=Cc2ccc3ccccc3c2NB1c1ccccc1
In C1CCCCC1
  photoluminescence quantum yield: 0.57

## CC(C)(C)c1ccc2c(c1)c1cc(C(C)(C)C)ccc1n2-c1ccc(-n2c3ccc(C(C)(C)C)cc3c3cc(C(C)(C)C)ccc32)c(-c2nccnc2C#N)c1
In Cc1ccccc1
  photoluminescence quantum yield: 0.05
[1]
  photoluminescence quantum yield: 0.44

## N#CC1=c2cc3c4c(c2Oc2c1cc1c5c2CCCN5CCC1)CCC[N+]=4CCC3
In CCO
  photoluminescence quantum yield: 0.25

## CCN(CC)c1ccc(-c2nc3c(nc2-c2ccc(B(c4c(C)cc(C)cc4C)c4c(C)cc(C)cc4C)cc2)c2ccccc2n3C)cc1
In C1CCOC1
  photoluminescence quantum yield: 0.21

## CC[N+]1(CC)CN2C(=N1)C(C(=O)O)=Cc1ccc(C)cc12
In O
  photoluminescence quantum yield: 0.617

## CC(=O)c1cc(=O)n(C)c2cc(-c3ccc(N(C)C)cc3)sc12
In ClCCl
  photoluminescence quantum yield: 0.18

## Oc1ccc(-c2nc(-c3ccccc3)c(-c3ccccc3)[nH]2)cc1
In CO
  photoluminescence quantum yield: 0.18

## CC1(C)c2ccccc2N(c2ccc(-c3nnc(-c4ccc(N5c6ccccc6C(C)(C)c6ccccc65)cc4)o3)cc2)c2ccccc21
[2]
  photoluminescence quantum yield: 0.62

## C1=Cc2ccccc2Cc2ccccc21
In CC#N
  photoluminescence quantum yield: 0.82
In CO
  photoluminescence quantum yield: 0.016

## Cc1nc(-c2ccccc2O)n2c1CCCC2
In ClCCl
  photoluminescence quantum yield: 0.63

## COC(=O)/C=C/C1=CC2=C(c3c(C)cc(C)cc3C)c3cc(/C=C/C(=O)OC)cn3[B-](F)(F)[N+]2=C1
In ClCCl
  photoluminescence quantum yield: 0.36

## Nc1cccnc1
In C1CCCCC1
  photoluminescence quantum yield: 0.02
In CC#N
  photoluminescence quantum yield: 0.05
In CCO
  photoluminescence quantum yield: 0.14
In CCOCC
  photoluminescence quantum yield: 0.03
In O
  photoluminescence quantum yield: 0.16

## c1ccc2c(c1)c1ccccc1n2-c1ccc(-c2nnc(-c3ccc(-n4c5ccccc5c5ccccc54)cc3)o2)cc1
[2]
  photoluminescence quantum yield: 0.93

## CCN(CC)/C(C)=N\c1ccc2c3c(cccc13)C(=O)c1ccccc1-2
In C1CCOC1
  photoluminescence quantum yield: 0.17
In CCCCCC
  photoluminescence quantum yield: 0.21
In CCO
  photoluminescence quantum yield: 0.14
In CCOC(C)=O
  photoluminescence quantum yield: 0.22
In CN(C)C=O
  photoluminescence quantum yield: 0.15
In CO
  photoluminescence quantum yield: 0.14
In Cc1ccccc1
  photoluminescence quantum yield: 0.56
In ClC(Cl)(Cl)Cl
  photoluminescence quantum yield: 0.31
In ClC(Cl)Cl
  photoluminescence quantum yield: 0.49
In ClCCl
  photoluminescence quantum yield: 0.5
In c1ccccc1
  photoluminescence quantum yield: 0.55

## CCCCCCc1ccc(-n2c3c4cccc(OC)c4nnc3c3c2c2nnc4c(OC)cccc4c2n3-c2ccc(CCCCCC)cc2)cc1
In Cc1ccccc1
  photoluminescence quantum yield: 0

## COc1ccc(C2=C3C(/C=C/c4cc(OC)c(OC)c(OC)c4)=C(C=O)C(C)=[N+]3[B-](F)(F)n3c(/C=C/c4cc(OC)c(OC)c(OC)c4)c(C=O)c(C=Cc4cc(OC)c(OC)c(OC)c4)c32)cc1
In ClCCl
  photoluminescence quantum yield: 0.1

## CC(C)(C)c1ccc2ccc3c(C(C)(C)C)ccc4ccc1c2c43
In CCCCCC
  photoluminescence quantum yield: 0.43
In CO
  photoluminescence quantum yield: 0.54
In ClCCl
  photoluminescence quantum yield: 0.34

## Cc1ccc(C(=O)OCc2ccc3c4cccc5cccc(c6cccc2c63)c54)cc1
In CCO
  photoluminescence quantum yield: 0.93

## COc1ccc(-c2cc(N3CCCCC3)c(C#N)c3c2-c2cccc4cccc-3c24)cc1
In O
  photoluminescence quantum yield: 0.36

## CC1(C)c2ccccc2N(c2ccc(S(=O)(=O)c3ccc(N4c5ccccc5C(C)(C)c5ccccc54)cc3)cc2)c2ccccc21
In C1COCCO1
  photoluminescence quantum yield: 0.8
In CC(C)=O
  photoluminescence quantum yield: 0.59
In Cc1ccccc1
  photoluminescence quantum yield: 0.8
In ClC(Cl)Cl
  photoluminescence quantum yield: 0.8
[1]
  photoluminescence quantum yield: 0.8

## c1ccc(-c2nc(-c3ccc(-c4nc(-c5ccccc5)c(-c5ccccc5)o4)cc3)oc2-c2ccccc2)cc1
In C1COCCO1
  photoluminescence quantum yield: 0.63

## CCCCCCc1ccc(-n2c3[n+](c4c5ccccc5c5ccccc5c42)[B-](C)(C)c2cc(-n4c5ccccc5c5ccccc54)ccc2-3)cc1
In C1CCOC1
  photoluminescence quantum yield: 0.82
In CC#N
  photoluminescence quantum yield: 0.71
In Cc1ccccc1
  photoluminescence quantum yield: 0.76
In ClCCl
  photoluminescence quantum yield: 0.83

## Cc1cc(-c2nnc(-c3c(C(C)C)cc(C(C)C)cc3C(C)C)o2)ccc1-n1c2ccccc2c2ccccc21
In Cc1ccccc1
  photoluminescence quantum yield: 0.38

## COc1ccc(C(=O)NN2C3=C(CC4=C2CCCC4=O)C(=O)CCC3)cc1
In CC#N
  photoluminescence quantum yield: 0.59
In CC(C)=O
  photoluminescence quantum yield: 0.48
In CCCCCO
  photoluminescence quantum yield: 0.6
In CO
  photoluminescence quantum yield: 0.32
In ClC(Cl)Cl
  photoluminescence quantum yield: 0.57
In ClCCl
  photoluminescence quantum yield: 0.57

## CC(C)[Si](C#Cc1c2ccc(C(C)(C)C)cc2c(C#Cc2c3ccc(C(C)(C)C)cc3c(C#Cc3c4ccc(C(C)(C)C)cc4c(C#C[Si](C(C)C)(C(C)C)C(C)C)c4ccc(C(C)(C)C)cc34)c3ccc(C(C)(C)C)cc23)c2ccc(C(C)(C)C)cc12)(C(C)C)C(C)C
In Cc1ccccc1
  photoluminescence quantum yield: 0.022

## C[N+]1=C(/C=C/C2=C3Oc4c(cc5c6c4CCCN6CCC5)C(c4ccccc4C(=O)O)=C3CCC2)C(C)(C)c2c1ccc1ccccc21
In CC#N
  photoluminescence quantum yield: 0.2
In CCO
  photoluminescence quantum yield: 0.29
In CO
  photoluminescence quantum yield: 0.3
In ClC(Cl)Cl
  photoluminescence quantum yield: 0.46

## CC(=O)Nc1ccc(S(=O)(=O)O)c(/N=N/c2c(O)c3ccccc3n(C)c2=O)c1
In CS(C)=O
  photoluminescence quantum yield: 0.03

## O=C([O-])c1cc2c(ccc3ccccc32)oc1=O
In O
  photoluminescence quantum yield: 0.24

## CCCCCCN1C(=O)c2cccc3cc(/N=C\c4ccc(N(c5ccccc5)c5ccccc5)cc4)cc(c23)C1=O
In ClC(Cl)Cl
  photoluminescence quantum yield: 0.14

## COc1ccc(C#Cc2c3cc4cc(C)sc4cc3c(C#Cc3ccc(OC)cc3)c3cc4cc(C)sc4cc23)cc1
In ClCCl
  photoluminescence quantum yield: 0.92

## CCN(CC)c1ccc2c(c1)oc(=O)c1cc3c(-c4ccccc4)nn(-c4ccccc4)c3nc12
In C1CCCCC1
  photoluminescence quantum yield: 0.31
In CCOC(C)=O
  photoluminescence quantum yield: 0.195
In CN(C)C=O
  photoluminescence quantum yield: 0.013
In CO
  photoluminescence quantum yield: 0.002
In ClCCl
  photoluminescence quantum yield: 0.24

## COc1cc2c(cc1-c1ccc(C)cc1)Cc1c3c(c4c(c1-2)-c1cc(OC)c(-c2ccc(C)cc2)cc1C4)C(=O)N(CCC(C)C)C3=O
In C1CCOC1
  photoluminescence quantum yield: 0.67

## Cc1ccc2[nH]c(-c3ccc(-c4ccc(-c5ccc(-c6nc7cc(C)ccc7[nH]6)cc5)c(C)c4)cc3)nc2c1
In CN(C)C=O
  photoluminescence quantum yield: 0.86

## CC1=CC(C)=[N+]2C1=Cc1cccn1[B-]2(F)F
In CCCCCC
  photoluminescence quantum yield: 0.93
In CO
  photoluminescence quantum yield: 0.99
In ClCCl
  photoluminescence quantum yield: 0.87

## CCCCCCOc1cc(/C=C/c2cc(OCCCCCC)c(/C=C/c3cc(OCCCCCC)c(C=C4C(=O)c5ccccc5C4=O)cc3OCCCCCC)cc2OCCCCCC)c(OCCCCCC)cc1C=C1C(=O)c2ccccc2C1=O
In ClCCl
  photoluminescence quantum yield: 0.0468

## CCN(CC)c1ccc2cc(/C=C(\C#N)c3nc4ccccc4s3)c(=O)oc2c1
In C1COCCO1
  photoluminescence quantum yield: 0.0043
In CC#N
  photoluminescence quantum yield: 0.0027
In CCO
  photoluminescence quantum yield: 0.0048
In CCOC(C)=O
  photoluminescence quantum yield: 0.0035
In CN(C)C=O
  photoluminescence quantum yield: 0.0122
In CO
  photoluminescence quantum yield: 0.0061
In CS(C)=O
  photoluminescence quantum yield: 0.0104
In Cc1ccccc1
  photoluminescence quantum yield: 0.0036
In ClCCl
  photoluminescence quantum yield: 0.0033

## CC1(C)C(/C=C/c2cc3ccc(O)cc3oc2=O)=[N+](CCCS(=O)(=O)[O-])c2ccccc21
In CCO
  photoluminescence quantum yield: 0.049
In CS(C)=O
  photoluminescence quantum yield: 0.023
In O
  photoluminescence quantum yield: 0.007

## CCN(CC)c1ccc2cc(/C=C/C3=C4CC/C(=C\c5cc6ccc(N(CC)CC)cc6oc5=O)C4=[O+][B-](F)(F)O3)c(=O)oc2c1
In C1COCCO1
  photoluminescence quantum yield: 0.3
In CC(C)=O
  photoluminescence quantum yield: 0.18
In CCOC(C)=O
  photoluminescence quantum yield: 0.2
In CS(C)=O
  photoluminescence quantum yield: 0.0068
In Cc1ccccc1
  photoluminescence quantum yield: 0.4
In ClC(Cl)Cl
  photoluminescence quantum yield: 0.22
